Source: the supplement of paper PMC10883282

Assays:
Assay in all cases: relative viability vs DMSO control (72 h) (fraction); higher = more viable cells
SYO-1 = test system: SYO-1
Procedure, shortened: (§1)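 Sarcoma cell lines were seeded in 384-well plates at densities chosen for 80–90% confluence, then 24 h later given 2.5 µl of serially diluted compound drawn from source plates spanning 10 mM to 0.0002 mM. They were held 72 h at 37 °C, 5% CO2, with 0.1% DMSO vehicle and a 5 µM positive control included. Relative viability was read with ATPLite as percent growth and averaged over up to triplicate wells. Rescaling placed full at 1 and none at 0.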

SW872 = test system: SW872
Procedure, shortened: as §1

KHOS-NP = test system: KHOS-NP
Procedure, shortened: as §1

SW684 = test system: SW684
Procedure, shortened: as §1

HT1080 = test system: HT1080
Procedure, shortened: as §1

G401 = test system: G401
Procedure, shortened: as §1

SK-LMS-1 = test system: SK-LMS-1
Procedure, shortened: as §1

VA-ES-BJ = test system: VA-ES-BJ
Procedure, shortened: as §1

HS729 = test system: HS729
Procedure, shortened: as §1

A204 = test system: A204
Procedure, shortened: as §1

SW1353 = test system: SW1353
Procedure, shortened: as §1

MES-SA = test system: MES-SA
Procedure, shortened: as §1

CN(C)C[C@@H]1CCn2cc(c3ccccc32)C2=C(C(=O)NC2=O)c2cn(c3ccccc23)CCO1 [Ruboxistaurin]
Settings	relative viability
A204, 0.00017 µM	1.08
A204, 0.00051 µM	1.07
A204, 0.00152 µM	1.08
A204, 0.00457 µM	1.06
A204, 0.01372 µM	1.06
A204, 0.04115 µM	1.08
A204, 0.1235 µM	1.03
A204, 0.3704 µM	1.05
A204, 1.111 µM	0.881
A204, 3.333 µM	0.808
A204, 10 µM	0.0478
G401, 0.00017 µM	1.03
G401, 0.00051 µM	1.01
G401, 0.00152 µM	0.988
G401, 0.00457 µM	1.01
G401, 0.01372 µM	1.02
G401, 0.04115 µM	0.961
G401, 0.1235 µM	1.02
G401, 0.3704 µM	1.01
G401, 1.111 µM	0.958
G401, 3.333 µM	0.938
G401, 10 µM	0.0283
HS729, 0.00017 µM	0.917
HS729, 0.00051 µM	0.936
HS729, 0.00152 µM	0.8749
HS729, 0.00457 µM	0.882
HS729, 0.01372 µM	0.895
HS729, 0.04115 µM	0.939
HS729, 0.1235 µM	0.894
HS729, 0.3704 µM	0.819
HS729, 1.111 µM	0.917
HS729, 3.333 µM	0.835
HS729, 10 µM	0.812
HT1080, 0.00017 µM	1.06
HT1080, 0.00051 µM	1.1
HT1080, 0.00152 µM	1.05
HT1080, 0.00457 µM	1.04
HT1080, 0.01372 µM	1.05
HT1080, 0.04115 µM	1.06
HT1080, 0.1235 µM	1.08
HT1080, 0.3704 µM	1.03
HT1080, 1.111 µM	1.08
HT1080, 3.333 µM	1.12
HT1080, 10 µM	0.904
KHOS-NP, 0.00017 µM	1.09
KHOS-NP, 0.00051 µM	1.09
KHOS-NP, 0.00152 µM	1.06
KHOS-NP, 0.00457 µM	1.07
KHOS-NP, 0.01372 µM	1.06
KHOS-NP, 0.04115 µM	1.08
KHOS-NP, 0.1235 µM	1.073
KHOS-NP, 0.3704 µM	1.093
KHOS-NP, 1.111 µM	1.1
KHOS-NP, 3.333 µM	1.073
KHOS-NP, 10 µM	1.045
MES-SA, 0.00017 µM	0.918
MES-SA, 0.00051 µM	0.909
MES-SA, 0.00152 µM	0.9276
MES-SA, 0.00457 µM	0.9006
MES-SA, 0.01372 µM	0.923
MES-SA, 0.04115 µM	0.91
MES-SA, 0.1235 µM	0.898
MES-SA, 0.3704 µM	0.887
MES-SA, 1.111 µM	0.84
MES-SA, 3.333 µM	0.7551
MES-SA, 10 µM	0.428
SK-LMS-1, 0.00017 µM	1.05
SK-LMS-1, 0.00051 µM	1.02
SK-LMS-1, 0.00152 µM	1.05
SK-LMS-1, 0.00457 µM	1.05
SK-LMS-1, 0.01372 µM	1.09
SK-LMS-1, 0.04115 µM	1.08
SK-LMS-1, 0.1235 µM	1.05
SK-LMS-1, 0.3704 µM	0.995
SK-LMS-1, 1.111 µM	0.922
SK-LMS-1, 3.333 µM	0.778
SK-LMS-1, 10 µM	0.4619
SW684, 0.00017 µM	1.12
SW684, 0.00051 µM	1.157
SW684, 0.00152 µM	1.158
SW684, 0.00457 µM	1.17
SW684, 0.01372 µM	1.16
SW684, 0.04115 µM	1.11
SW684, 0.1235 µM	1.15
SW684, 0.3704 µM	1.16
SW684, 1.111 µM	1.14
SW684, 3.333 µM	1.15
SW684, 10 µM	0.857
SW872, 0.00017 µM	1
SW872, 0.00051 µM	1.04
SW872, 0.00152 µM	1.02
SW872, 0.00457 µM	1.06
SW872, 0.01372 µM	0.989
SW872, 0.04115 µM	1.04
SW872, 0.1235 µM	1.01
SW872, 0.3704 µM	1.02
SW872, 1.111 µM	0.9094
SW872, 3.333 µM	0.846
SW872, 10 µM	0.599
SW1353, 0.00017 µM	1.02
SW1353, 0.00051 µM	1.01
SW1353, 0.00152 µM	0.983
SW1353, 0.00457 µM	0.99
SW1353, 0.01372 µM	0.975
SW1353, 0.04115 µM	0.994
SW1353, 0.1235 µM	0.961
SW1353, 0.3704 µM	0.977
SW1353, 1.111 µM	0.894
SW1353, 3.333 µM	0.827
SW1353, 10 µM	0.252
SYO-1, 0.00017 µM	0.962
SYO-1, 0.00051 µM	0.9554
SYO-1, 0.00152 µM	0.962
SYO-1, 0.00457 µM	0.941
SYO-1, 0.01372 µM	0.931
SYO-1, 0.04115 µM	0.933
SYO-1, 0.1235 µM	0.899
SYO-1, 0.3704 µM	0.849
SYO-1, 1.111 µM	0.79
SYO-1, 3.333 µM	0.347
SYO-1, 10 µM	-0.0266
VA-ES-BJ, 0.00017 µM	0.988
VA-ES-BJ, 0.00051 µM	0.999
VA-ES-BJ, 0.00152 µM	0.984
VA-ES-BJ, 0.00457 µM	0.988
VA-ES-BJ, 0.01372 µM	0.982
VA-ES-BJ, 0.04115 µM	0.996
VA-ES-BJ, 0.1235 µM	0.9734
VA-ES-BJ, 0.3704 µM	0.945
VA-ES-BJ, 1.111 µM	0.861
VA-ES-BJ, 3.333 µM	0.825
VA-ES-BJ, 10 µM	0.651
